Structures are written as SMILES.

One test deals with CCRF-CEM-AraC-8C cells. The test is described as follows: In vitro cytotoxicity assay (MTT), 72 h, hENT1 deficient cells. In kind it is cell-based, human. As to conditions: for Ratio of IC50 in CCRF-CEM-AraC-8C to that in CCRF-CEM: HCl. The text has this:
(§1) Human leukemia cell line CCRF-CEM (CCL-119), human pancreatic cancer cell lines PANC-1 (CRL-1469), MIA PaCa-2 (CRL-1420), and BxPC-3 (CRL-1687), human breast adenocarcinoma cell line MCF-7 (HTB-22), and mouse lung cancer cell line TC-1 (CRL-2785) were from the American Type Culture Collection (Rockville, Md.). CCRF-CEM-AraC-8C cells (hENT1 deficient) and CCRF-CEM/dCK^−/− cells (dCK deficient) were kindly provided by Dr. Buddy Ullmann (Oregon Health & Science University, Portland, Oreg.) and Dr. Margaret Black (Washington State University, Pullman, Wash.), respectively. L1210 wt and L1210 10K were kindly supplied by Dr. Lars Petter Jordheim (Université Claude Bernard Lyon I, Lyon, France). TC-1-GR cells were previously developed in our lab. CCRF-CEM, CCRF-CEM-AraC-8C, CCRF-CEM/dCK^−/−, L1210 wt, L1210 10K, TC-1, and TC-1-GR cells were cultured in RPMI 1640 medium. MCF-7 and PANC-1 cells were cultured in Dulbecco's modified Eagle medium (DMEM), MIA PaCa-2 cells were cultured in DMEM medium with 2.5% horse serum. All media were supplemented with 10% fetal bovine serum (FBS), 100 U/mL of penicillin, and 100 μg/mL of streptomycin (all from Invitrogen, Carlsbad, Calif.).
(§2) Cells (5,000/well) were seeded in 96-well plates. After overnight incubation, they were treated with various concentrations of gemcitabine HCl, gemcitabine derivatives, or gemcitabine derivatives in nanoparticles at 37° C., 5% CO2. TC-1 and TC-1-GR cells were incubated for 48 h. CCRF-CEM, CCRF-CEM-AraC-8C, CCRF-CEM/dCK^−/−, L1210 wt, L1210 10K, and MCF-7 cells were incubated for 72 h, and MIA PaCa-2 and PANC-1 for 96 h. Gemcitabine HCl was dissolved in phosphate-buffered saline (PBS), and gemcitabine derivatives were dissolved in dimethyl sulfoxide (DMSO). […] The number of viable cells after the incubation was determined using an MTT assay. Briefly, 3-(4,5-dimethylthiazol-2-yl)-2,5-diphenyltetrazolium bromide (20 μl, 5 mg/mL) was added in each well and incubated for 3 h. Formazan crystals were solubilized with acidified isopropanol (150 μl) (for CCRF-CEM, CCRF-CEM-AraC-8C, CCRF-CEM/dCK^−/−, L1210 wt, and L1210 10K cells) or DMSO (150 μl) (for TC-1, TC-1-GR, MCF-7, PANC-1, and MIA PaCa-2). Absorbance was measured using a BioTek Synergy™ HT Multi-Mode Microplate Reader (BioTek Instruments, Winooski, Vt.) at 570 nm and 630 nm. The fraction of affected (dead) cells (Fa) and the fraction of unaffected (live) cells (Fu) at every dose were calculated, and the Log(Fa/Fu) values were plotted against the Log(concentration of gemcitabine). IC50 was the dose at Log(Fa/Fu)=0, See e.g., Chou, T. C. & Talalay, P., 1984, Adv. Enzyme Regul. 22:27-55. The experiment was repeated at least three times.

For the next test, the system named is CCRF-CEM cells. The test is described as follows: In vitro cytotoxicity assay (MTT), 72 h. In kind it is cell-based, human. As to conditions: Homo sapiens, CCRF-CEM, 72 h incubation.
Text: as §1, §2

Test [1] relates to TC-1 mouse lung cancer cells (s.c. tumors). The test is described as follows: Anti-tumor activity of PLGA-GemC18-NPs in TC-1 tumor-bearing mice (Example 19). It is filed as in vivo. To be noted: C57BL/6 mice, i.v. twice a week from day 11, 150 μg GemC18 per mouse per dose or molar equivalent gemcitabine HCl. The procedure:
The anti-tumor activity of the PLGA-GemC18-NPs was evaluated in female C57BL/6 mice (18-20 g, 6-8 weeks, n=4-5) that were subcutaneously (s.c.) injected with TC-1 mouse lung cancer cells (ATCC # CRL-2785, 5×10^5 cells/mouse) in the right flank. Mouse hair was carefully trimmed at the injection site 1 day prior to the injection. PLGA-GemC18-NPs, GemC18-free NP (PLGA-NPs), gemcitabine hydrochloride (HCl) (U.S. Pharmacopeia; Rockville, Md.) and sterile mannitol (5%, w/v) were intravenously (i.v) injected starting on day 11, twice a week until the end of the study. The dose of the GemC18 was 150 μg per mouse per dose, or the molar equivalent dose for gemcitabine HCl. Tumor size was determined 2-3 times a week and calculated using the formulas: diameter (mm)=[length+width]/2.

The test system of another test is CCRF-CEM/dCK−/− cells. The test can be described thus: In vitro cytotoxicity assay (MTT), 72 h, dCK deficient cells. It is filed as cell-based, human.
Text: as §1
(§3) Cells (5,000/well) were seeded in 96-well plates. After overnight incubation, they were treated with various concentrations of gemcitabine HCl, gemcitabine derivatives, or gemcitabine derivatives in nanoparticles at 37° C., 5% CO2. TC-1 and TC-1-GR cells were incubated for 48 h. CCRF-CEM, CCRF-CEM-AraC-8C, CCRF-CEM/dCK^−/−, L1210 wt, L1210 10K, and MCF-7 cells were incubated for 72 h, and MIA PaCa-2 and PANC-1 for 96 h. […] The number of viable cells after the incubation was determined using an MTT assay. […] Absorbance was measured using a BioTek Synergy™ HT Multi-Mode Microplate Reader (BioTek Instruments, Winooski, Vt.) at 570 nm and 630 nm. The fraction of affected (dead) cells (Fa) and the fraction of unaffected (live) cells (Fu) at every dose were calculated, and the Log(Fa/Fu) values were plotted against the Log(concentration of gemcitabine). […]

Test [2] concerns PANC-1 cells. The test is described as follows: Trypan blue exclusion assay of cell viability. It is filed as cell-based, human. As to conditions: 400 μM. The method, then:
Cell viability was determined using a trypan blue exclusion assay. Data shown are mean±S.D. (S.D.: standard deviation) (n=3). Experiment was repeated twice.

Another test concerns L1210 10K cells. The test is described as follows: In vitro cytotoxicity assay (MTT), 72 h, dCK deficient cells. It is filed as cell-based, murine.
Text: as §1, §3

For a further test, the system named is TC-1-GR cells. The test is described as follows: cells. It is filed as cell-based.
Text: as §1, §2

In another test the test system is MIA PaCa-2 cells. As to conditions: literature value; read-out: IC50 in MIA PaCa-2 cells reported by Duxbury et al.; cited from earlier work.
The test system of test [3] is PANC-1 cells. To be noted: literature value; read-out: IC50 in PANC-1 cells reported by Duxbury et al.; cited from earlier work.
A further test deals with TC-1-GR tumors. To be noted: mice with pre-established TC-1-GR tumors; cited from earlier work.
Where [4] appears, read: IC50 of gemcitabine HCl divided by that of the derivatives or derivatives in nanoparticles.

As usually defined, the IC50 is the midpoint of a concentration-inhibition curve. In the case of `Cl.Nc1ccn([C@@H]2O[C@H](CO)[C@@H](O)C2(F)F)c(=O)n1` [Gemcitabine HCl, 2′,2′-difluorodeoxycytidine HCl, reference compound], the figures for the “Ratio of IC50 in CCRF-CEM-AraC-8C to that in CCRF-CEM” value with CCRF-CEM-AraC-8C cells and in the test on CCRF-CEM-AraC-8C cells (listed as gemcitabine HCl) were 333 and 344, respectively. Moreover, the IC50 is 998.8 ± 9.4 nM in the test with CCRF-CEM-AraC-8C cells (Homo sapiens, MTT, 72 h incubation, hENT1 deficient); 2.9 ± 1.8 nM with CCRF-CEM cells; 240000 ± 29000 nM with CCRF-CEM/dCK−/− cells (Homo sapiens, CCRF-CEM, MTT, 72 h incubation, dCK deficient); 22200 ± 3700 nM in the test on L1210 10K cells (Mus musculus, L1210, MTT, 72 h incubation, dCK deficient); 36700 ± 5100 nM in the test on TC-1-GR cells (Mus musculus, MTT, 48 h incubation, RRM1 over-expressing); 40 nM with MIA PaCa-2 cells. In the test on PANC-1 cells [3], the half-inhibitory concentration (IC50) was 50 nM. For the same compound, in the test with CCRF-CEM-AraC-8C cells (setting [4]), the “Ratio of IC50 values in CEM-AraC-8C cells” value turned out to be 1. Moreover, in test [1], the “TC-1 tumor growth (tumor diameter)” value is listed as “only slightly delayed the TC-1 tumor growth”. Moreover, the “Ratio of IC50 in CCRF-CEM/dCK−/− to that in CCRF-CEM” value in the test on CCRF-CEM/dCK−/− cells is listed as 82,897. Further, in the test on PANC-1 cells [2], the “Time to kill 50% of PANC-1 cells” value amounted to 116 h. Moreover, the “Ratio of IC50 in L1210 10K to that in L1210 wt” value in the test on L1210 10K cells is reported as 17,046. Besides, the “Ratio of IC50 values in L1210 10K cells” value in the test with L1210 10K cells (IC50 of gemcitabine HCl divided by that of the nanoparticles) is recorded as 1. Further, the “Ratio of IC50 in TC-1-GR to that in TC-1” value in the test with TC-1-GR cells is recorded as 2,497. Also, in the test on TC-1-GR cells (setting [4]), the “Ratio of IC50 values in TC-1-GR cells” value was found to be 1. The “TC-1-GR tumor growth in mice (previous study)” value with TC-1-GR tumors is “did not show any significant anti-tumor activity”.
